From patent publication US20180079912A1, “ANTIFOULING MATERIALS” (priority 2013, published 2018)
Square brackets hold non-standard residues; d marks the D form. Peptide text beside a SMILES is read from it. Phe(4-F) = N[C@@H](Cc1ccc(F)cc1)C(=O)O; Dopa = N[C@@H](Cc1ccc(O)c(O)c1)C(=O)O

How the values were obtained:
[1] = Layer thickness on Ti evaluated by XPS; type: physicochemical; conditions: Ti substrates, prolonged incubation
Protocol: The X-ray Photoelectron Spectroscopy (XPS) measurements were performed using a Kratos AXIS Ultra X-ray photoelectron spectrometer (Kratos Analytical Ltd., Manchester, UK). Spectra were acquired using the A1-Kα monochromatic X-ray source (1,486.7 eV). Sample take-off angle was 90° (i.e. normal to the analyzer). The vacuum pressure in the analyzing chamber maintained to 2·10^-9 Torr. […] Data analyses were done using the Kratos Vision data reducing processing software (Kratos Analytical Ltd.) and […] Software Ltd.). Using the XPS measurements, it is possible to calculate the thickness of the assembled layers. We have done so using the standard attenuation relations of the photoelectrons emerging from different sample depths. The thickness calculation is based on the Briggs et al. method and others. For the Au substrate, the overlay thickness d (nm) expressed as: […] Calculated, using S. Tougard […] software (http://www.quases.com). Inelastic electron mean free path calculated from the Tanuma, Powell and Penn algorithm [Penn, 1994].

[2] = QCM-D real-time adhesion of peptides to Ti sensor (Sauerbrey model); conditions: QCM-D on Ti sensor, 0.5 mg/mL in MeOH, 40 minutes
Protocol: QCM-D (Q-sense, Biolin Scientific) was used for the study of peptide adhesion onto Ti surface. Measurements were performed in a flow module E1 system. Ti sensors with a fundamental resonant frequency of 5 MHz were also purchased from Q-sense and used as supplied. Prior to each experiment Ti sensors were cleaned with Oxygen/Plasma (Atto, Diener Electronic), followed by rinsing with 2% SDS and TDW and finally dried under N2. All QCM-D experiments were performed under flow-through conditions using a digital peristaltic pump ([…] Peristaltic Pump, IDEX) operating in pushing mode. The studied solutions were injected to the sensor crystal chamber at a rate of 0.1 mL/min. Organic solvent compatible tube and O-ring were used for the flow system. Peptides were dissolved in MeOH to a concentration of 0.5 mg/mL. The data were fitted with Sauerbrey model. According to this model the mass of adhering layer is calculated as […]

[3] = AFM topography of mica coated with the peptides; type: physicochemical; conditions: coated mica substrate, 0.5 mg/mL in methanol overnight
Protocol: Freshly cleaved mica surfaces were dipped overnight in different peptide solution at a concentration of 0.5 mg/mL in methanol. Then, the surfaces were washed with fresh methanol and dried under N2.

[4] = Surface free energy, Owens-Wendt geometric mean equation; type: physicochemical; conditions: f-DOPA-coated gold surface; water and diiodomethane
Protocol: (§1) The wetting properties were further investigated by the tilting-plate method that measured the dynamic contact angles, because it was essential in the confirmation of self-cleaning properties to investigate the dynamic water contact angles and surface free energies. The advancing (yadv) and receding (yrec) water contact angles of f-DOPA-coated substrates were measured, and the contact angle hysteresis (i.e., (yadv-yrec)) of each substrate was calculated. […] A water droplet on the substrate easily rolled off at a tilt angle of 5.31, which is clear evidence of self-cleaning properties. […] In addition, the surface free energy (gS) was calculated based on the Owens-Wendt geometric mean equation that divides the surface free energy into the dispersive (gDS) and polar (gPS) ones.
The surface free energy (gS; gS=gDS+gPS) of each surface was determined by measuring the contact angles with water and diiodomethane (CH2I2). The surface free energy of the f-DOPA-coated gold surface was calculated to be 0.279 mJ m^−2, and the other substrates have the surface free energies between 0.2 and 0.9 mJ m^−2. These values are extremely low, probably because of both the structural roughness and the incorporated perfluoro groups. For comparison, the surface free energy of a smooth surface modified with CF3 groups in hexagonal close packing was reported to be 6.7 mJ m^−2. […]

[5] = Dynamic water contact angles, tilting-plate method; type: physicochemical; conditions: gold substrate after coating
Protocol: as §1

[6] = XPS, SEM and AFM of f-DOPA films; type: physicochemical
Protocol: After 12 h, the substrate was washed with acetonitrile, and the coating process was repeated with a fresh f-DOPA solution.

[7] = Coating thickness by ellipsometry (Cauchy model); type: physicochemical; conditions: Cauchy film model
Protocol: The thickness of the peptide-based coating was measured using α-SE spectroscopic ellipsometer (J. A. Woollam, Lincoln, Nebr., USA). […] The thickness of the layers and refractive indices were fitted according to the Cauchy model. The coefficients of the Cauchy equation were initially fixed for organic layers (An=1.45, Bn=0.01 and Cn=0), and an angle offset was permitted. Then, the parameters were allowed to be fitted to determine more accurate values.

[8] = Contact angle measurements of peptide-coated surfaces; type: physicochemical; conditions: titanium substrate coated with peptide; bare 43.2°; 0.5 mg/mL in methanol
Protocol: The clean surfaces were dipped in a peptide solution (0.5 mg/mL in methanol) and left for overnight at RT. Then, they were rinsed extensively with methanol and dried under nitrogen. Contact angle measurements were carried out using a Theta Lite optical tensiometer (Attension, Finland). Each experimental measurement consisted of three repeats, and the reported angles were averaged. […] We chose this concentration of peptide since it formed a substantial coating that gave a good signal in various characterization methods. After incubation, we thoroughly washed the substrate with methanol and dried it under nitrogen. Due to the hydrophobic moieties of the peptides, water could not be used as a solvent system despite its high polarity. We used methanol as the solvent since it dissolved the peptide completely, and at the same time allowed it to adhere the substrate. Since methanol is a toxic solvent, we also examined other solvents with different polarities.

Compound: NH2-L-DOPA-D-(4F)Phe(2)-D-(4F)Phe(3)-COOMe [Peptide 4]
- average thickness of the peptide layer evaluated by XPS [1]: 4.41±0.03 nm
- Density [2]: 769 Kg/m^3
- Mass/Area [2]: 45 ± 2 ng/cm^2
- Thickness [2]: 5.6 ± 0.3 Å
- height of spherical-like aggregates (AFM) [3]: 0.32-0.65 nm

Compound: NC(Cc1ccc(O)c(O)c1)C(=O)OCCC(F)(F)C(F)(F)C(F)(F)C(F)(F)C(F)(F)C(F)(F)C(F)(F)C(F)(F)F (centres unmarked) [f-DOPA]
- surface free energy [4]: 0.279 mJ m^−2
- contact angle hysteresis [5]: 9.91
- tilt angle at which a water droplet rolled off [5]: 5.31
- film thickness ([6]; f-DOPA coating on gold, from disappearance of Au XPS peaks): ≥ 10 nm
- root-mean-square roughness (AFM) ([6]; f-DOPA film): 533.92 nm

Compound: COC(=O)[C@H](Cc1ccc(F)cc1)NC(=O)[C@@H](N)Cc1ccc(O)c(O)c1 [Peptide 6, NH2-L-DOPA-L-(4F) Phe-COOMe] (H-[Dopa]-[Phe(4-F)]-OMe)
- average thickness of the peptide layer evaluated by XPS [1]: 3.82±0.04 nm
- thickness of the coating by ellipsometry [7]: 3.66±0.04 nm
- Density [2]: 805 Kg/m^3
- Mass/Area [2]: 13 ± 2 ng/cm^2
- Thickness [2]: 1.7 ± Å
- height of spherical-like aggregates (AFM) [3]: 1.02-3.65 nm

Compound: NH2-L-DOPA-L-(4F)Phe(2)-D-(4F)Phe(3)-COOMe [Peptide 2]
- average thickness of the peptide layer evaluated by XPS [1]: 4.3±0.1 nm
- Density [2]: 824 Kg/m^3
- Mass/Area [2]: 57 ± 3 ng/cm^2
- Thickness [2]: 7.3 ± 0.3 Å
- height of spherical-like aggregates (AFM) [3]: 0.20-0.48 nm

Compound: NH2-L-DOPA-D-(4F)Phe(2)-L-(4F)Phe(3)-COOMe [Peptide 3]
- average thickness of the peptide layer evaluated by XPS [1]: 3.9±0.1 nm
- Density [2]: 760 Kg/m^3
- Mass/Area [2]: 43 ± 4 ng/cm^2
- Thickness [2]: 5.4 ± 0.5 Å
- height of spherical-like aggregates (AFM) [3]: 0.20-2.30 nm

Compound: NH2-DOPA-L-(F5)Phe(2)-L-(F5)Phe(3)-COOMe [Peptide 5]
- average thickness of the peptide layer evaluated by XPS [1]: 4.2±0.1 nm
- thickness of the coating by ellipsometry [7]: 5.2±0.1 nm
- Density [2]: 717 Kg/m^3
- Mass/Area [2]: 27 ± 3 ng/cm^2
- Thickness [2]: 3.4 ± Å
- height of spherical-like aggregates (AFM) [3]: 1.00-5.00 nm

Compound: NH2-L-DOPA-L(4F)-Phe(2)-L(4F)-Phe(3)-COOMe [Peptide 1]
- contact angle [8]: 68.1 °
- average thickness of the peptide layer evaluated by XPS [1]: 3.9±0.1 nm
- Density [2]: 767 ± 4 Kg/m^3
- Mass/Area [2]: 72.1 ± 0.4 ng/cm^2
- Thickness [2]: 9.11 ± 0.05 Å
- height of spherical-like aggregates (AFM) [3]: 0.25-0.50 nm
